# What was measured:
# acute migraine = experiment: Patient case reports: acute (rescue/abortive) migraine therapy; assay type: in vivo, human; conditions: for success for acute migraine: historically, before the regimen
# migraine headaches = conditions: for effect of preventive on migraine frequency: Patient two, before the regimen, ELAVIL 75 mg orally at bedtime, prednisone brief rounds
# [1] = Patient three, history before the regimen
compound,measurement,setting,value
O=C(c1ccccc1)c1ccc2n1CCC2C(=O)O (stereo not shown) [TORADOL],response for acute migraine rescue,acute migraine; [1],poor response
same,response to abortive therapy,"acute migraine; human, in vivo, po",good response
Clc1ccc2nsnc2c1NC1=NCCN1 [ZANAFLEX],side effects of migraine prevention,"migraine headaches; human, in vivo",cognitive dysfunction
CNS(=O)(=O)Cc1ccc2[nH]cc(CCN(C)C)c2c1 [IMITREX],course of response for acute migraine rescue,acute migraine; [1],"worked well initially, but became ineffective"
same,response for acute migraine rescue,acute migraine; [1],poor response
same,response of migraines to acute therapy,"acute migraine; Patient two, 100 mg orally, prior to breast cancer diagnosis, two to three migraines per month",responded well
same,response to rescue medication,"acute migraine; Patient two, while using the regimen and ELAVIL",more responsive to a single dose
CN(C)CCC=C1c2ccccc2CCc2ccccc21 [ELAVIL],effect of preventive on migraine frequency,migraine headaches,did not reduce migraine frequency
same,side effects of migraine preventive,"migraine headaches; human, in vivo",weight gain
CN[C@@H]1CCc2[nH]c3ccc(C(N)=O)cc3c2C1 [FROVA],success for acute migraine,acute migraine; Patient one,moderate success
same,success as rescue drug,"acute migraine; Patient one, while using the regimen",with success
CC(CN1c2ccccc2Sc2ccccc21)N(C)C (stereo not shown) [phenegran],success for acute migraine,acute migraine; Patient one,moderate success
botulinum toxin [BOTOX],migraine remission / frequency,"migraine headaches; human, in vivo",complete remission of migraines to once per month
CN(C)CCc1c[nH]c2ccc(Cn3cncn3)cc12 [MAXALT],response for acute migraine rescue,acute migraine; [1],poor response
CC(C)C[C@H](CN)CC(=O)O [LYRICA],side effects of migraine preventive,"migraine headaches; human, in vivo",fluid retention and confusion
CC(C)(C#N)c1cc(Cn2cncn2)cc(C(C)(C)C#N)c1 [ARMIDEX],effect on migraines (adverse),"migraine headaches; human, in vivo","more frequent, disabling, and less responsive"
C[C@]12C=CC(=O)C=C1CC[C@@H]1[C@@H]2C(=O)C[C@@]2(C)[C@H]1CC[C@]2(O)C(=O)CO [prednisone],effect of preventive on migraine frequency,migraine headaches,short-lived migraine reduction
CC1(C)O[C@@H]2[C@@H](CO[C@@]3(COS(N)(=O)=O)OC(C)(C)O[C@@H]23)O1 [TOPAMAX],migraine reduction and severity with preventive,migraine headaches; Patient one,poor migraine reduction and severity
same,effect of preventive on migraine frequency,migraine headaches,did not reduce migraine frequency
same,side effects of migraine prevention,"migraine headaches; human, in vivo",cognitive dysfunction
same,side effects of migraine preventive,"migraine headaches; human, in vivo",alopecia
same,tolerance of migraine preventive,"migraine headaches; human, in vivo",poor tolerance
